Results taken from ChEMBL document CHEMBL4725419, “Complete Regression of Carcinoma via Combined C-RAF and EGFR Targeted Therapy” (2020).

Assays:
[1] = Antiproliferative activity against EGFR/C-RAF knockdown human PDAC003T cells harboring K-RAS G12D/TP53 Q136P mutant xenografted in mouse tumor model assessed as inhibition of cell proliferation by MTT assay in presence of erlotinib; assay type: functional
[2] = tested on: PANC-1; assay: Antiproliferative activity against EGFR/C-RAF knockdown human PANC-1 cells harboring K-RAS G12D/TP53 P72R/K129R mutant xenografted in mouse tumor model assessed as inhibition of cell proliferation by MTT assay in presence of erlotinib; assay type: functional
[3] = Antiproliferative activity against EGFR/C-RAF knockdown human PDAC013T cells harboring K-RAS G12D/TP53 I254T mutant xenografted in mouse tumor model assessed as inhibition of cell proliferation by MTT assay in presence of erlotinib; assay type: functional
[4] = Antiproliferative activity against EGFR/C-RAF knockdown human Panc4 cells harboring K-RAS G12D/TP53 P72R/R28W mutant xenografted in mouse tumor model assessed as inhibition of cell proliferation by MTT assay in presence of erlotinib; assay type: functional, Panc-4
[5] = Antiproliferative activity against EGFR/C-RAF knockdown human Panc198 cells harboring K-RAS G12D/TP53 D208V mutant xenografted in mouse tumor model assessed as inhibition of cell proliferation by MTT assay in presence of erlotinib; assay type: functional
[6] = Antiproliferative activity against EGFR/C-RAF knockdown human H-PDAC-M-X3 cells harboring K-RAS G12D/TP53 H179Y mutant xenografted in mouse tumor model assessed as inhibition of cell proliferation by MTT assay in presence of erlotinib; assay type: functional

`C#Cc1cccc(Nc2ncnc3cc(OCCOC)c(OCCOC)cc23)c1` [ERLOTINIB] gave an INH [1] of 11.7 µM, an INH [2] of 6.1 µM and an INH [3] of 2.05 µM. For the same compound, the INH [4] was 2.82 µM, the INH [5] was 32.8 µM and the INH [6] was 24.5 µM.
